According to ChEMBL document CHEMBL1926510, “Naphthoquinone-like polyketide isolated from Streptomyces sp. RI-77 and its predicted biosynthetic pathway” (J Nat Prod, 2011):
Activity calls are given as the source filed them. No cut-off for these calls is given here.

Columns and labels:
[1] = Antioxidant activity assessed as DPPH radicle scavenging activity after 30 mins by spectrometric analysis; assay type: functional
Escherichia coli = assay: Antibacterial activity Escherichia coli; assay type: functional, organism-based
Micrococcus luteus = assay: Antibacterial activity Micrococcus luteus; assay type: functional, organism-based

| SMILES | IC50 [1] [µM] | Activity (Escherichia coli) | Activity (Micrococcus luteus) |
| --- | --- | --- | --- |
| COc1cc(O)c2c(c1O)C(=O)[C@@]13C[C@H]4[C@@H](C[C@H]1C(C)=O)OC(=O)[C@@]4(OC)C(O)=C3C2=O | 165 | inactive | inactive |
| Cc1c(C)c2c(c(C)c1O)CC[C@@](C)(CCC[C@H](C)CCC[C@H](C)CCCC(C)C)O2 [ALPHA-TOCOPHEROL] | 28 | – | – |
